Earlier results, collected in patent US20090214446A1, “CYCLODEXTRIN INCLUSION COMPLEXES AND METHODS OF PREPARING SAME” (CARGILL, INCORPORATED, priority 2005, published 2009).

Settings: octanol/water

Compound	log P
C=C(C)[C@H]1CC=C(C)CC1 [limonene]	4.83
CCc1occc(=O)c1O [ethyl maltol]	0.30
CC(=O)C(C)=O [diacetyl]	−1.34
